Experiments:
Conditions in all cases: 2 hr; for Percent killing of NRel: NRel induced with 5 μg HuTipMab
[1] = test system: M. abscessus clinical isolate 1; assay: Antibiotic mediated killing of planktonic and NRel M. abscessus clinical isolate 1
Experimental: (§1) To determine relative susceptibility of planktonic NTM to amikacin, biofilms were prepared and gently washed twice with DPBS as described above, then treated with 200 μL of either: 7H9 (growth control); 7H9+0.5 μg amikacin/mL for M. abscessus 19977, +12 μg amikacin/mL for M. avium, +0.7 μg amikacin/mL for M. abscessus clinical isolate 1 or +lug amikacin/mL for M. abscessus clinical isolate 3. […] Treated biofilms were incubated statically at 37° C. in 5% CO2 and humidity for 2 hr, after which 150 μL was collected from each well and dispensed into 1.5 mL Eppendorf microcentrifuge tubes, then pulse-vortexed with two sterile 3 mm glass beads (Fisher Scientific International, Inc., Hampton, NH) to disrupt aggregates. Suspensions were gently sonicated for 2 min in a waterbath sonicator (Ultrasonic Bath 2.8 L, Fisher Scientific) to further disrupt any aggregates. After sonication, samples were diluted and plated on Middlebrook 7H10 agar and incubated at 37° C. with 5% CO2 in a humidified atmosphere to assess relative CFU.
(§2) To determine azithromycin-mediated killing, the same protocol as above was used with one adjustment. […] Wells were treated with 200 μL of either: 7H9 (growth control); 7H9+5 μg azithromycin/mL for M. abscessus 19977, +16 μg azithromycin/mL for M. avium, +10 μg azithromycin/mL for M. abscessus clinical isolate 1, or +8 μg azithromycin/mL for M. abscessus clinical isolate 3. […] Percent killing was then calculated as [growth control CFU/mL-NRel or planktonic CFU/mL]/[growth control CFU/mL].

[2] = test system: M. abscessus clinical isolate 3; assay: Antibiotic mediated killing of planktonic and NRel M. abscessus clinical isolate 3
Experimental: as §1, §2

[3] = test system: M. avium; assay: Antibiotic mediated killing of planktonic and newly released (NRel) M. avium
Experimental: as §1, §2

[4] = test system: M. abscessus 19977; assay: Antibiotic mediated killing of planktonic and newly released (NRel) M. abscessus 19977
Experimental: as §1, §2

| SMILES | Percent killing of NRel ([1]; 0.7 μg amikacin/mL) | Percent killing of planktonic bacteria ([1]; 0.7 μg amikacin/mL) | Percent killing of NRel ([2]; lug amikacin/mL) | Percent killing of planktonic bacteria ([2]; lug amikacin/mL) | Percent killing of NRel ([3]; 12 μg amikacin/mL (¼ MIC)) | Percent killing of planktonic bacteria ([3]; 12 μg amikacin/mL (¼ MIC)) | Percent killing of NRel ([4]; 0.5 μg amikacin/mL (¼ MIC)) | Percent killing of planktonic bacteria ([4]; 0.5 μg amikacin/mL (¼ MIC)) | Percent killing of NRel ([1]; 10 μg azithromycin/mL) | Percent killing of planktonic bacteria ([1]; 10 μg azithromycin/mL) | Percent killing of NRel ([2]; 8 μg azithromycin/mL) | Percent killing of planktonic bacteria ([2]; 8 μg azithromycin/mL) | Percent killing of NRel ([3]; 16 μg azithromycin/mL (½ MIC)) | Percent killing of planktonic bacteria ([3]; 16 μg azithromycin/mL (½ MIC)) | Percent killing of NRel ([4]; 5 μg azithromycin/mL (½ MIC)) | Percent killing of planktonic bacteria ([4]; 5 μg azithromycin/mL (½ MIC)) |
| --- | --- | --- | --- | --- | --- | --- | --- | --- | --- | --- | --- | --- | --- | --- | --- | --- |
| NCC[C@H](O)C(=O)N[C@@H]1C[C@H](N)[C@@H](O[C@H]2O[C@H](CN)[C@@H](O)[C@H](O)[C@H]2O)[C@H](O)[C@H]1O[C@H]1O[C@H](CO)[C@@H](O)[C@H](N)[C@H]1O [amikacin, Amikacin] | 45% | 28% | 47% | 21% | 41% | 17% | 61% | 23% |  |  |  |  |  |  |  |  |
| CC[C@H]1OC(=O)[C@H](C)[C@@H](O[C@H]2C[C@@](C)(OC)[C@@H](O)[C@H](C)O2)[C@H](C)[C@@H](O[C@@H]2O[C@H](C)C[C@H](N(C)C)[C@H]2O)[C@](C)(O)C[C@@H](C)CN(C)[C@H](C)[C@@H](O)[C@]1(C)O [azithromycin, Azithromycin] |  |  |  |  |  |  |  |  | 47% | 28% | 45% | 25% | 36% | 19% | 42% | 20% |

Reference: US20260176328A1, “ANTIBODY COMPOSITIONS AND METHODS FOR DISRUPTING NONTUBERCULOUS MYCOBACTERIA BIOFILMS” (priority 2022, published 2026)
